# Laboratory results reported in PubChem BioAssay AID1117277 (The Scripps Research Institute Molecular Screening Center, 2014).
# Activity calls are given as the source filed them. No rule for the calls is given here.
# Tested on: Jurkat human T cells viability, luminescence (cytotoxicity counterscreen)
# Assay: Jurkat T cell cytotoxicity, dose response, cytotoxicity control, luminescence (AID 1117277)
compound,measurement,value
O=C(C[N+]12CCC(CC1)C(OC(=O)c1ccccc1)C2)c1ccc([N+](=O)[O-])cc1 (stereo unspecified),IC50,> 83.3 µM (inactive)
